According to ChEMBL document CHEMBL1201862, “PubChem BioAssay data set” (2004):
Where a name gives a salt, the structure may show the parent alone.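 Each compound was tested at five concentrations against cells in 96-well plates for 48 hours. GI50 marks 50% less growth.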 Active and inactive are the calls of the source. Cut-off read from the data, not from the text of the source: active = GI50 up to about 1.1 µM and inactive = higher.

Columns and labels:
Test in all cases: growth of human tumour cells (NCI), 48 h
MDA-MB-435 = system: MDA-MB-435
SN12C = system: SN12C
CCRF-CEM = system: CCRF-CEM
EKVX = system: EKVX
HCT-15 = system: HCT-15
UACC-257 = system: UACC-257
MOLT-4 = system: MOLT-4
SNB-75 = system: SNB-75
OVCAR-8 = system: OVCAR-8
ACHN = system: ACHN
KM12 = system: KM12
TK-10 = system: TK-10
HOP-92 = system: HOP-92
MDA-MB-231 = system: MDA-MB-231
NCI/ADR-RES = system: NCI/ADR-RES
NCI-H23 = system: NCI-H23
SK-MEL-28 = system: SK-MEL-28
UO-31 = system: UO-31
BT-549 = system: BT-549
HL-60 = system: HL-60
A498 = system: A498
OVCAR-4 = system: OVCAR-4
UACC-62 = system: UACC-62
MDA-N = system: MDA-N
U-251 = system: U-251
NCI-H460 = system: NCI-H460
NCI-H226 = system: NCI-H226
HCC 2998 = system: HCC 2998
SNB-19 = system: SNB-19
SR = system: SR
SF-268 = system: SF-268
RPMI-8226 = system: RPMI-8226
CAKI-1 = system: CAKI-1
LOX IMVI = system: LOX IMVI
RXF 393 = system: RXF 393
PC-3 = system: PC-3
COLO 205 = system: COLO 205
DU-145 = system: DU-145
SF-295 = system: SF-295
HOP-62 = system: HOP-62
SK-MEL-5 = system: SK-MEL-5
OVCAR-5 = system: OVCAR-5
HT-29 = system: HT-29
IGROV-1 = system: IGROV-1
A549 = system: A549
SF-539 = system: SF-539
Hs-578T = system: Hs-578T
MCF7 = system: MCF7
SK-OV-3 = system: SK-OV-3
HCT-116 = system: HCT-116
M14 = system: M14
SW-620 = system: SW-620
NCI-H522 = system: NCI-H522
OVCAR-3 = system: OVCAR-3
786-0 = system: 786-0
SK-MEL-2 = system: SK-MEL-2
K562 = system: K562
Malme-3M = system: Malme-3M

CC1(C)/C(=N\O)C2(OS(=O)(=O)C(F)(F)F)CCC1C2 (configuration not stated)
GI50 (MDA-MB-435): 60.1 µM (inactive) | GI50 (SN12C): > 100 µM (inactive) | GI50 (CCRF-CEM): > 100 µM (inactive) | GI50 (EKVX): > 100 µM (inactive) | GI50 (HCT-15): > 100 µM | GI50 (UACC-257): > 100 µM (inactive) | GI50 (MOLT-4): > 100 µM (inactive) | GI50 (SNB-75): > 100 µM (inactive) | GI50 (OVCAR-8): > 100 µM (inactive) | GI50 (ACHN): > 100 µM (inactive) | GI50 (KM12): > 100 µM (inactive) | GI50 (TK-10): > 100 µM (inactive) | GI50 (HOP-92): > 100 µM (inactive) | GI50 (MDA-MB-231): > 100 µM (inactive) | GI50 (NCI/ADR-RES): > 100 µM (inactive) | GI50 (NCI-H23): > 100 µM (inactive) | GI50 (SK-MEL-28): > 100 µM (inactive) | GI50 (UO-31): > 100 µM (inactive) | GI50 (BT-549): > 100 µM (inactive) | GI50 (HL-60): 12 µM (inactive) | GI50 (A498): > 100 µM (inactive) | GI50 (OVCAR-4): > 100 µM (inactive) | GI50 (UACC-62): > 100 µM (inactive) | GI50 (MDA-N): > 100 µM (inactive) | GI50 (U-251): > 100 µM (inactive) | GI50 (NCI-H460): > 100 µM (inactive) | GI50 (NCI-H226): 70.8 µM (inactive) | GI50 (HCC 2998): > 100 µM (inactive) | GI50 (SNB-19): > 100 µM (inactive) | GI50 (SR): 55.1 µM (inactive) | GI50 (SF-268): > 100 µM (inactive) | GI50 (RPMI-8226): 27.4 µM (inactive) | GI50 (CAKI-1): > 100 µM (inactive)

COc1ccc(OC)c(/C=C2/C(=O)N/C(=N\C(C)=O)N2C)c1
GI50 (LOX IMVI): > 100 µM (inactive) | GI50 (MDA-MB-435): > 100 µM (inactive) | GI50 (SN12C): > 100 µM (inactive) | GI50 (CCRF-CEM): > 100 µM (inactive) | GI50 (RXF 393): > 100 µM (inactive) | GI50 (PC-3): > 100 µM (inactive) | GI50 (COLO 205): > 100 µM (inactive) | GI50 (DU-145): > 100 µM (inactive) | GI50 (SF-295): > 100 µM (inactive) | GI50 (EKVX): > 100 µM (inactive) | GI50 (HCT-15): > 100 µM | GI50 (HOP-62): > 100 µM (inactive) | GI50 (UACC-257): > 100 µM (inactive) | GI50 (MOLT-4): > 100 µM (inactive) | GI50 (SNB-75): > 100 µM (inactive) | GI50 (OVCAR-8): > 100 µM (inactive) | GI50 (ACHN): > 100 µM (inactive) | GI50 (SK-MEL-5): > 100 µM (inactive) | GI50 (KM12): > 100 µM (inactive) | GI50 (OVCAR-5): > 100 µM (inactive) | GI50 (HT-29): > 100 µM (inactive) | GI50 (TK-10): > 100 µM (inactive) | GI50 (IGROV-1): > 100 µM (inactive) | GI50 (A549): > 100 µM (inactive) | GI50 (HOP-92): > 100 µM (inactive) | GI50 (MDA-MB-231): > 100 µM (inactive) | GI50 (NCI/ADR-RES): > 100 µM (inactive) | GI50 (SF-539): > 100 µM (inactive) | GI50 (Hs-578T): > 100 µM (inactive) | GI50 (NCI-H23): > 100 µM (inactive) | GI50 (SK-MEL-28): > 100 µM (inactive) | GI50 (UO-31): > 100 µM (inactive) | GI50 (BT-549): > 100 µM (inactive) | GI50 (MCF7): > 100 µM (inactive) | GI50 (SK-OV-3): > 100 µM (inactive) | GI50 (HL-60): 95.1 µM (inactive) | GI50 (HCT-116): > 100 µM (inactive) | GI50 (OVCAR-4): > 100 µM (inactive) | GI50 (M14): > 100 µM (inactive) | GI50 (SW-620): > 100 µM (inactive) | GI50 (UACC-62): > 100 µM (inactive) | GI50 (MDA-N): > 100 µM (inactive) | GI50 (U-251): > 100 µM (inactive) | GI50 (NCI-H460): > 100 µM (inactive) | GI50 (NCI-H226): > 100 µM (inactive) | GI50 (HCC 2998): > 100 µM (inactive) | GI50 (NCI-H522): > 100 µM (inactive) | GI50 (OVCAR-3): > 100 µM (inactive) | GI50 (SNB-19): > 100 µM (inactive) | GI50 (786-0): > 100 µM (inactive) | GI50 (SK-MEL-2): > 100 µM (inactive) | GI50 (SF-268): > 100 µM (inactive) | GI50 (CAKI-1): > 100 µM (inactive)

Cn1c2nc3ccccc3c-2cc2ccccc21 [NEOCRYPTOLEPINE HYDROCHLORIDE]
GI50 (LOX IMVI): 5.07 µM (inactive) | GI50 (MDA-MB-435): 5.65 µM (inactive) | GI50 (CCRF-CEM): 4.4 µM (inactive) | GI50 (PC-3): 5.45 µM (inactive) | GI50 (COLO 205): 2.76 µM (inactive) | GI50 (DU-145): 12.8 µM (inactive) | GI50 (SF-295): 6.34 µM (inactive) | GI50 (EKVX): 3.98 µM (inactive) | GI50 (HT-29): 4.69 µM (inactive) | GI50 (IGROV-1): 4.6 µM (inactive) | GI50 (SF-539): 5.74 µM (inactive) | GI50 (MCF7): 3.21 µM (inactive) | GI50 (K562): 4.3 µM (inactive) | GI50 (HL-60): 3.62 µM (inactive) | GI50 (SW-620): 5.79 µM (inactive) | GI50 (NCI-H460): 3.29 µM (inactive) | GI50 (OVCAR-3): 6.4 µM (inactive) | GI50 (SR): 2.93 µM (inactive)

CC(C)CC(NC(=O)C(COc1ccc([N+](=O)[O-])cc1)Cc1ccccc1)C(=O)Nc1ccccc1 (configuration not stated)
GI50 (LOX IMVI): 48.6 µM (inactive) | GI50 (MDA-MB-435): 14.1 µM (inactive) | GI50 (SN12C): 37.5 µM (inactive) | GI50 (CCRF-CEM): 7.26 µM (inactive) | GI50 (RXF 393): 16.3 µM (inactive) | GI50 (PC-3): 38.7 µM (inactive) | GI50 (COLO 205): 9.04 µM (inactive) | GI50 (DU-145): > 100 µM (inactive) | GI50 (SF-295): 11.2 µM (inactive) | GI50 (EKVX): 23.6 µM (inactive) | GI50 (HCT-15): 13.3 µM | GI50 (UACC-257): 25.7 µM (inactive) | GI50 (MOLT-4): 22.1 µM (inactive) | GI50 (SNB-75): 2.38 µM (inactive) | GI50 (OVCAR-8): 6.98 µM (inactive) | GI50 (ACHN): 16.8 µM (inactive) | GI50 (SK-MEL-5): 7.83 µM (inactive) | GI50 (KM12): 5.85 µM (inactive) | GI50 (OVCAR-5): 40.3 µM (inactive) | GI50 (TK-10): 11.5 µM (inactive) | GI50 (IGROV-1): 7.8 µM (inactive) | GI50 (A549): 16.1 µM (inactive) | GI50 (HOP-92): 13.3 µM (inactive) | GI50 (MDA-MB-231): 21.1 µM (inactive) | GI50 (NCI/ADR-RES): 12.7 µM (inactive) | GI50 (SF-539): 6.68 µM (inactive) | GI50 (NCI-H23): 13 µM (inactive) | GI50 (UO-31): 7 µM (inactive) | GI50 (BT-549): 10.9 µM (inactive) | GI50 (MCF7): 25.8 µM (inactive) | GI50 (SK-OV-3): 13.8 µM (inactive) | GI50 (K562): 19.2 µM (inactive) | GI50 (HL-60): 10.3 µM (inactive) | GI50 (HCT-116): 22.2 µM (inactive) | GI50 (A498): 24 µM (inactive) | GI50 (OVCAR-4): 2.35 µM (inactive) | GI50 (M14): 9.53 µM (inactive) | GI50 (Malme-3M): 5.02 µM (inactive) | GI50 (SW-620): 24.3 µM (inactive) | GI50 (UACC-62): 11.1 µM (inactive) | GI50 (MDA-N): 10.3 µM (inactive) | GI50 (U-251): 12.6 µM (inactive) | GI50 (NCI-H460): 4.29 µM (inactive) | GI50 (NCI-H226): 3.44 µM (inactive) | GI50 (HCC 2998): 13.1 µM (inactive) | GI50 (NCI-H522): 12.5 µM (inactive) | GI50 (OVCAR-3): 41.1 µM (inactive) | GI50 (SNB-19): 7.76 µM (inactive) | GI50 (786-0): 7.08 µM (inactive) | GI50 (SK-MEL-2): 21.7 µM (inactive) | GI50 (SR): 41.5 µM (inactive) | GI50 (RPMI-8226): 40.5 µM (inactive) | GI50 (CAKI-1): 28.2 µM (inactive)
